Source: patent US20220056040A1, “NOVEL 3-(2-BROMO-4-ALKYNYL-6-ALKOXYPHENYL)-3-PYRROLIN-2-ONES AND THEIR USE AS HERBICIDES” (Bayer Aktiengesellschaft, priority 2019, published 2022)

Key:
Type in all cases: in vivo
Hordeum murinum = assay: Post-emergence herbicidal effect; details: 80 g/ha, post-emergence at one-leaf stage, visual score after about 3 weeks
Protocol: (§1) Seeds of monocotyledonous and dicotyledonous weed and crop plants are laid out in sandyloam soil in wood-fiber pots, covered with soil and cultivated in a greenhouse under good growth conditions. 2 to 3 weeks after sowing, the test plants are treated at the one-leaf stage. The compounds of the invention, formulated in the form of wettable powders (WP) or as emulsion concentrates (EC), are then sprayed onto the green parts of the plants as aqueous suspension or emulsion at a water application rate equating to 600 to 800 l/ha with addition of 0.2% wetting agent. After the test plants have been left to stand in the greenhouse under optimal growth conditions for about 3 weeks, the action of the preparations is assessed visually in comparison to untreated controls (herbicidal action in percent (%): 100% activity=the plants have died, 0% activity=like control plants).

Echinochloa crus-galli [1] = assay: Post-emergence herbicidal effect; details: 80 g/ha, post-emergence at one-leaf stage, visual score after about 3 weeks
Protocol: as §1

Alopecurus myosuroides [2] = assay: Post-emergence herbicidal effect; details: 80 g/ha, post-emergence at one-leaf stage, visual score after about 3 weeks
Protocol: as §1

Digitaria sanguinalis [3] = assay: Post-emergence herbicidal effect; details: 80 g/ha, post-emergence at one-leaf stage, visual score after about 3 weeks
Protocol: as §1

Setaria viridis [4] = assay: Post-emergence herbicidal effect; details: 80 g/ha, post-emergence at one-leaf stage, visual score after about 3 weeks
Protocol: as §1

Lolium rigidum [5] = assay: Post-emergence herbicidal effect; details: 80 g/ha, post-emergence at one-leaf stage, visual score after about 3 weeks
Protocol: as §1

Avena fatua = assay: Pre-emergence herbicidal effect; details: 80 g/ha, visual score after 3 weeks vs untreated controls
Description: (§2) Seeds of monocotyledonous and dicotyledonous weed plants and crop plants are laid out in sandy loam soil in wood-fiber pots and covered with soil. The compounds of the invention, formulated in the form of wettable powders (WP) or as emulsion concentrates (EC), are then applied to the surface of the covering soil as aqueous suspension or emulsion at a water application rate equating to 600 to 800 L/ha with addition of 0.2% wetting agent. After the treatment, the pots are placed in a greenhouse and kept under good growth conditions for the trial plants. The damage to the test plants is scored visually after a test period of 3 weeks by comparison with untreated controls (herbicidal activity in percent (%): 100% activity=the plants have died, 0% activity=like control plants).

Echinochloa crus-galli [6] = assay: Pre-emergence herbicidal effect; details: 80 g/ha, visual score after 3 weeks vs untreated controls
Description: as §2

Alopecurus myosuroides [7] = assay: Pre-emergence herbicidal effect; details: 80 g/ha, visual score after 3 weeks vs untreated controls
Description: as §2

Digitaria sanguinalis [8] = assay: Pre-emergence herbicidal effect; details: 80 g/ha, visual score after 3 weeks vs untreated controls
Description: as §2

Setaria viridis [9] = assay: Pre-emergence herbicidal effect; details: 80 g/ha, visual score after 3 weeks vs untreated controls
Description: as §2

Lolium rigidum [10] = assay: Pre-emergence herbicidal effect; details: 80 g/ha, visual score after 3 weeks vs untreated controls
Description: as §2

Row | Structure (SMILES) | Post-emergence action against HORMU (herbicidal action in percent) (Hordeum murinum) [%] | Post-emergence action against ECHCG (herbicidal action in percent) (Echinochloa crus-galli [1]) [%] | Post-emergence action against ALOMY (herbicidal action in percent) (Alopecurus myosuroides [2]) [%] | Post-emergence action against DIGSA (herbicidal action in percent) (Digitaria sanguinalis [3]) [%] | Post-emergence action against SETVI (herbicidal action in percent) (Setaria viridis [4]) [%] | Post-emergence action against LOLRI (herbicidal action in percent) (Lolium rigidum [5]) [%] | Pre-emergence action AVEFA (herbicidal activity in percent) (Avena fatua) [%] | Pre-emergence action ECHCG (herbicidal activity in percent) (Echinochloa crus-galli [6]) [%] | Pre-emergence action ALOMY (herbicidal activity in percent) (Alopecurus myosuroides [7]) [%] | Pre-emergence action DIGSA (herbicidal activity in percent) (Digitaria sanguinalis [8]) [%] | Pre-emergence action SETVI (herbicidal activity in percent) (Setaria viridis [9]) [%] | Pre-emergence action LOLRI (herbicidal activity in percent) (Lolium rigidum [10]) [%]
1 | C=CCOC1CCC2(CC1)NC(=O)C(c1c(Br)cc(C#CC)cc1OC)=C2O (stereo not drawn) [Example 1.3.01] | 100 | 100 | 100 | 100 | 100 | 100 | 100 | 90 | 100 | 100 | 100 | 100
2 | CC#Cc1cc(Br)c(C2=C(O)C3(CCC4(CC3)OCCO4)NC2=O)c(OC)c1 [Example 1.2.03] | 100 | 100 | 90 | 100 | 100 | 100 | 100 | 100 | 100 | 100 | 100 | 100
